From publication PMC11356900, “Synthesis, Structural Properties and Biological Activities of Novel Hydrazones of 2-, 3-, 4-Iodobenzoic Acid” (Molecules, 2024) come the findings set out here.

The nature of this data set: MTT cytotoxicity assay. Type of data set: cell-based, mouse. The conditions noted are these: mouse, L929 fibroblast cells; L929, 48 h culture, dose of 25 μM; read-out: increased viability. The protocol:
Among all the newly synthesized compounds, four compounds designated as: 14, 20, 21 and 27 were selected for further testing of their cytotoxic properties at the doses of 10, 25, 50, 75 and 100 µM. The cytotoxic properties of the above compounds were tested on the cancer cell lines, i.e., A549 (ECACC 86012804) (non-small-cell lung cancer), T47D (ECACC 85102201) (breast cancer), HeLa (ATCC® CCL-2™) (cervical cancer) and normal line L929 (NCTC clone 929, ATCC® CCL-1™) (mouse fibroblasts) using the MTT test for 24- and 48 h cultures.
A549 (ECACC 86012804) (non-small-cell lung cancer) and T47D (ECACC 85102201) (breast cancer) were obtained from ECACC and propagated in Dulbecco’s Minimal Essential Medium, supplemented with 2 mM of glutamine, antibiotics ([…] streptomycin, 1% of 100 U/L penicillin) and 10% Fetal Bovine Serum. HeLa (ATCC® CCL-2™) (cervical cancer) and L929 (NCTC clone 929, ATCC® CCL-1™) (mouse fibroblasts) cell lines were obtained from ATCC and propagated in the Eagle Minimal Essential Medium supplemented with antibiotics ([…] streptomycin, 1% of 100 U/L penicillin) and with 10% and 5% FBS, respectively. The cell line was routinely grown in 75 cm^2 tissue culture flasks and kept in an incubator (humidified atmosphere of 5% CO2 at 37 °C). All examined cell lines were tested against mycoplasma contamination with microbiological assays.
The cell viability of tested compounds (14, 20, 21 and 27) was assessed by the MTT assay. In brief, the exponentially growing cells were plated in 100 μL/well in 96-well plates. After 24 h culturing, the cells were treated with different concentrations of compounds (range 10–100 μM). After 24 and 48 h of incubation, 10 μL of 5 mg/mL MTT was added to each well and the plates were incubated at 37 °C for additional 4 h. The medium was subsequently removed, the purple-colored precipitates of formazan were dissolved in 100 μL of DMSO. The color absorbance was recorded at 570 nm using a BioTek model EPOCH ELISA plate reader. All experiments were performed in triplicate. The absorbance values were in the range of linearity of the Lambert–Beer law.

Structures are written as SMILES.

For `O=C(N/N=C/c1cc(I)cc(I)c1O)c1ccccc1I` [Compound 14, N-[(3,5-diiodo-2-hydroxyphenyl)methylidene]-2-iodobenzohydrazide], the viability at 48 h, 25 µM was above 100%.
